Data taken from ChEMBL document CHEMBL4619804, “Target-Based Identification and Optimization of 5-Indazol-5-yl Pyridones as Toll-like Receptor 7 and 8 Antagonists Using a Biochemical TLR8 Antagonist Competition Assay” (J Med Chem, 2020).

Experiments:
Toll-like receptor 9 [1] = biological target: T1, Toll-like receptor 9 (Homo sapiens, UniProt Q9NR96); test: Antagonist activity at TLR9 in human PBMC assessed as inhibition of ODN2216-induced IFNalpha production preincubated for 30 mins followed by ODN2216 addition and measured after 20 hrs by alphaLISA; format: cell-based
T1 sequence (Q9NR96 whole entry): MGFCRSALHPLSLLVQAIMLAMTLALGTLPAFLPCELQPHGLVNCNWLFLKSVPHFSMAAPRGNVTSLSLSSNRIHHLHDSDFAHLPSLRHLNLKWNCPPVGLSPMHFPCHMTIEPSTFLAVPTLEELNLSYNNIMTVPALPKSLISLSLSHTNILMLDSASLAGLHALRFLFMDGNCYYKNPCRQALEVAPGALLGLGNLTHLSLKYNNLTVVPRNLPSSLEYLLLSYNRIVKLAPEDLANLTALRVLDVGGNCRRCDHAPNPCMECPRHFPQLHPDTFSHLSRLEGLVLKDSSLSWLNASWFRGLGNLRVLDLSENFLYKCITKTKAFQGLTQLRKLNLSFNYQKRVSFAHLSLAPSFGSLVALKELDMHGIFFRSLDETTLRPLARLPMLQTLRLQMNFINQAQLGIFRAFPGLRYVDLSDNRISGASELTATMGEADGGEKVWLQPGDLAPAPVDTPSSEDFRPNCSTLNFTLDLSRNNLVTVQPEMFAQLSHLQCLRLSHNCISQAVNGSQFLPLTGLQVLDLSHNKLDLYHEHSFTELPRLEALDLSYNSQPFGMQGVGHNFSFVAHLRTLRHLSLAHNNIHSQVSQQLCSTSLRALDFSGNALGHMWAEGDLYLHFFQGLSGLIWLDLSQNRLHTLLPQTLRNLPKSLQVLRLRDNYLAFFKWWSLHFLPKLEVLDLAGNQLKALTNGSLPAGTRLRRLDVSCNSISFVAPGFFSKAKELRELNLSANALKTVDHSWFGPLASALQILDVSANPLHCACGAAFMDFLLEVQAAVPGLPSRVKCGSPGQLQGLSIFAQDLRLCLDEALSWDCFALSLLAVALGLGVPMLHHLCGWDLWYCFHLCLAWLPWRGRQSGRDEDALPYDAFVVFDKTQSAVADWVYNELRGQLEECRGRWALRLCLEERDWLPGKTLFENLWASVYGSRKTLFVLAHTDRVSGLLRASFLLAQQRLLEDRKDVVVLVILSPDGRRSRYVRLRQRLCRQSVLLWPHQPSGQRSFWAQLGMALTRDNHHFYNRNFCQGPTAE

Toll-like receptor 9 [2] = biological target: T2, Toll-like receptor 9 (Mus musculus, UniProt Q9EQU3); test: Antagonist activity at TLR9 in mouse whole blood inhibition of DOTAP-ODN2216-induced IFNalpha production preincubated for 30 mins followed by DOTAP-ODN2216 addition and measured after 20 hrs by ELISA; format: tissue-based
T2 sequence (Q9EQU3 whole entry): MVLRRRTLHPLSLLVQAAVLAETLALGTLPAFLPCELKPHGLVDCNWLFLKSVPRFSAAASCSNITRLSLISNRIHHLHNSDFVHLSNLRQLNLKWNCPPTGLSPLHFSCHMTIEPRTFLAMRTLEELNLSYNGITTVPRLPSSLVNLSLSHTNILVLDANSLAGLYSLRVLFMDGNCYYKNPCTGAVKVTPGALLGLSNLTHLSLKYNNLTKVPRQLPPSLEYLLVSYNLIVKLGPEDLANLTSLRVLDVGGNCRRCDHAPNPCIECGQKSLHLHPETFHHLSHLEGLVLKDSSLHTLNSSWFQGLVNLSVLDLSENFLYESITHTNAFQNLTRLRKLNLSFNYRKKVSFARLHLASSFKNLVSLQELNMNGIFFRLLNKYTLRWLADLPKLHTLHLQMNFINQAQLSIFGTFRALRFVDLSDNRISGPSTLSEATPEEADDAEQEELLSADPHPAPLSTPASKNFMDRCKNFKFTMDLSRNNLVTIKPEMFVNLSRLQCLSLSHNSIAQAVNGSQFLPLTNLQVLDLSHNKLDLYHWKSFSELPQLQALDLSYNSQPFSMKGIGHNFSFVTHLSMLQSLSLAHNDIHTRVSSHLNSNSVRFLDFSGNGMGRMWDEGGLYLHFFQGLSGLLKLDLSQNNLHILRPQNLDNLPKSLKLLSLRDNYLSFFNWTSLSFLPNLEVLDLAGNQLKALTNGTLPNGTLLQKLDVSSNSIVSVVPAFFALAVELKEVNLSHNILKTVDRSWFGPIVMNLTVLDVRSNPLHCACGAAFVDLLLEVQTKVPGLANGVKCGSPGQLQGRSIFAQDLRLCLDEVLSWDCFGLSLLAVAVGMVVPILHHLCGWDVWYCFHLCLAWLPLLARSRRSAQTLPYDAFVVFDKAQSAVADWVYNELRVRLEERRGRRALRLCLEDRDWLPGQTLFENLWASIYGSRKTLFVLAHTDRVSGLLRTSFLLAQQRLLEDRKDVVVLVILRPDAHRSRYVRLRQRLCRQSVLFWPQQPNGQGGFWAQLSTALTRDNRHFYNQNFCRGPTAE

Toll-like receptor 2 = Toll-like receptor 2 (Homo sapiens, UniProt O60603); test: Antagonist activity at TLR2 in human PBMC assessed as inhibition of Pam3CSK4-induced TNFalpha production preincubated for 30 mins followed by Pam3CSK4 addition and measured after 20 hrs by HTRF assay; format: cell-based
Toll-like receptor 4 = Toll-like receptor 4 (Homo sapiens, UniProt O00206); test: Antagonist activity at TLR4 in human PBMC assessed as inhibition of LPS-induced TNFalpha production preincubated for 30 mins followed by LPS addition and measured after 20 hrs by HTRF assay; format: cell-based
Toll-like receptor 9 [3] = biological target: T1, Toll-like receptor 9; test: Antagonist activity at TLR9 in human whole blood inhibition of DOTAP-ODN2216-induced IFNalpha production preincubated for 30 mins followed by DOTAP-ODN2216 addition and measured after 20 hrs by ELISA; format: tissue-based

Sequence of Toll-like receptor 2 (O60603 whole entry): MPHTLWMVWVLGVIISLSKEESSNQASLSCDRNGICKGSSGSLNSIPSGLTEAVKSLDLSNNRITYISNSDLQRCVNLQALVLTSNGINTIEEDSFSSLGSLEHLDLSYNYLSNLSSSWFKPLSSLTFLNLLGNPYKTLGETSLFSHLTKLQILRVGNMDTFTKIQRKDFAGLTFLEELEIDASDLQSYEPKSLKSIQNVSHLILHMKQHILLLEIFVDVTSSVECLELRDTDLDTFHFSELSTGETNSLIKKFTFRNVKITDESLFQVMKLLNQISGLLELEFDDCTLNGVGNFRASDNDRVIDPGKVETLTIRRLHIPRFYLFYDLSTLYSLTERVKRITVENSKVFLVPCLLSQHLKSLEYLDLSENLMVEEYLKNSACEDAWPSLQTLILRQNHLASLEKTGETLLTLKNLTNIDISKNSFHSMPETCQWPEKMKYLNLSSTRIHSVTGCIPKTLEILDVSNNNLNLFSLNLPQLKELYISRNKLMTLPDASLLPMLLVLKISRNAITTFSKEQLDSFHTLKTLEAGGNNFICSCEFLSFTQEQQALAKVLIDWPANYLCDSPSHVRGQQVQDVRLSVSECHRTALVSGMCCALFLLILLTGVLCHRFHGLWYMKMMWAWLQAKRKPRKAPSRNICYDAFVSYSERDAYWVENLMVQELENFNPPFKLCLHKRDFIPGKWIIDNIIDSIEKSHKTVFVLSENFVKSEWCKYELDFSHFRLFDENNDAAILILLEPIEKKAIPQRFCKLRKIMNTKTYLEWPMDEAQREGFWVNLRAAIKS
Sequence of Toll-like receptor 4 (O00206 whole entry): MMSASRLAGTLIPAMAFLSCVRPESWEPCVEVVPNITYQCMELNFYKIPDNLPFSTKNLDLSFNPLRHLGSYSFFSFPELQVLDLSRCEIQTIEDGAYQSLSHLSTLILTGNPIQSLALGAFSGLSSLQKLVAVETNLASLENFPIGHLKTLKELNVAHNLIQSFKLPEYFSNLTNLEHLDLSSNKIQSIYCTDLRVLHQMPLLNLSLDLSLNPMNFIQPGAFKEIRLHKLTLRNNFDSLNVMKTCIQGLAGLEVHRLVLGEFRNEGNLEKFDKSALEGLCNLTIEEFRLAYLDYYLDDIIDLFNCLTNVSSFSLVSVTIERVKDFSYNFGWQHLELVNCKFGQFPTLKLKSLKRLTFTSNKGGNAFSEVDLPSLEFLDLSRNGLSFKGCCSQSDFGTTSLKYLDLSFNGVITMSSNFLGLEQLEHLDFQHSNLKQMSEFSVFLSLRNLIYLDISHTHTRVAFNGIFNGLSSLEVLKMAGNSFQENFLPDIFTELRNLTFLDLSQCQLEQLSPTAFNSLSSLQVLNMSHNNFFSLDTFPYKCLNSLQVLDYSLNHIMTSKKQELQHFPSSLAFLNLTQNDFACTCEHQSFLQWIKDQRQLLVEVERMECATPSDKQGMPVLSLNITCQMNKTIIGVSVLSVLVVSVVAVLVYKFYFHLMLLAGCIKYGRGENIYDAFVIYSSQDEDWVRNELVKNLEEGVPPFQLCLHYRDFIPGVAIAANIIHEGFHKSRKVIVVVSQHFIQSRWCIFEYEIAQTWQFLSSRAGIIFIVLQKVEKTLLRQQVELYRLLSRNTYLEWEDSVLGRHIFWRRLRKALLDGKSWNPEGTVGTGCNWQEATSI

IC50 (Toll-like receptor 9 [1]): > 5.3 µM
IC50 (Toll-like receptor 9 [2]): > 10 µM
IC50 (Toll-like receptor 2): > 6.5 µM
IC50 (Toll-like receptor 4): > 6.5 µM
IC50 (Toll-like receptor 9 [3]): > 10 µM
SMILES: O=c1ccc(-c2cc(C(F)(F)F)c3nn([C@H]4CCNC[C@@H]4F)cc3c2)c2n1CCC2
